Measurements taken from PubChem BioAssay (NCI).
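Assay format: 96-well plates, 48-hour exposure. At the TGI there is no net growth.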

Legend:
Assay in all cases: growth of human tumour cells (NCI), 48 h
A498 renal = system: A498 renal
A549 NSCLC = system: A549 NSCLC
CCRF-CEM leukemia = system: CCRF-CEM leukemia
HCT-116 colon = system: HCT-116 colon
HCT-15 colon = system: HCT-15 colon
HOP-92 NSCLC = system: HOP-92 NSCLC
MALME-3M melanoma = system: MALME-3M melanoma
MDA-MB-231 breast = system: MDA-MB-231 breast
MDA-N = system: MDA-N
NCI-H23 lung = system: NCI-H23 lung
NCI/ADR-RES ovarian = system: NCI/ADR-RES ovarian
RXF 393 renal = system: RXF 393 renal
SF-295 CNS = system: SF-295 CNS
SK-MEL-2 melanoma = system: SK-MEL-2 melanoma
SK-MEL-5 melanoma = system: SK-MEL-5 melanoma
SN12C renal = system: SN12C renal
SNB-75 CNS = system: SNB-75 CNS
T-47D breast = system: T-47D breast
UACC-62 melanoma = system: UACC-62 melanoma
ACHN renal = system: ACHN renal

Row | Structure (SMILES) | TGI (A498 renal) | TGI (A549 NSCLC) | TGI (CCRF-CEM leukemia) | TGI (HCT-116 colon) | TGI (HCT-15 colon) | TGI (HOP-92 NSCLC) | TGI (MALME-3M melanoma) | TGI (MDA-MB-231 breast) | TGI (MDA-N) | TGI (NCI-H23 lung) | TGI (NCI/ADR-RES ovarian) | TGI (RXF 393 renal) | TGI (SF-295 CNS) | TGI (SK-MEL-2 melanoma) | TGI (SK-MEL-5 melanoma) | TGI (SN12C renal) | TGI (SNB-75 CNS) | TGI (T-47D breast) | TGI (UACC-62 melanoma) | TGI (ACHN renal)
1 | CCCN1CC=C(c2cc(C(=O)OCC)[nH]c2-c2cc(C)no2)C1=O | > 100 µM | > 100 µM | > 100 µM | > 100 µM | > 100 µM | > 100 µM | > 100 µM | > 100 µM | > 100 µM | > 100 µM | > 100 µM | > 100 µM | > 100 µM | > 100 µM | > 100 µM | > 100 µM | > 100 µM | > 100 µM | > 100 µM | 
2 | COc1cc(OC)cc(OCc2ccc3nc(-c4ccccc4)c(Cl)nc3c2)c1 | 76.8 µM | > 100 µM | > 100 µM | > 100 µM | > 100 µM | 66.4 µM | 32.7 µM | 30.5 µM | > 100 µM | > 100 µM | 67.8 µM |  | 67.8 µM | > 100 µM | 69.9 µM | > 100 µM | 37.4 µM | > 100 µM | > 100 µM | > 100 µM
3 | CC(=O)Nc1ccc(N=C2C(c3ccccc3)=C(SC3=C(c4ccccc4)C(=Nc4ccc(NC(C)=O)cc4)c4ccccc43)c3ccccc32)cc1 | 87.1 µM | > 100 µM | > 100 µM | > 100 µM | > 100 µM | > 100 µM | > 100 µM | > 100 µM | > 100 µM | 99.8 µM | 72.9 µM | 82.8 µM | > 100 µM | > 100 µM | 31.3 µM | > 100 µM | > 100 µM | 48.4 µM |  | > 100 µM
4 | O=[N+]([O-])c1ccc2[nH]nc(OCc3ccccn3)c2c1 | > 100 µM | > 100 µM | > 100 µM | > 100 µM | > 100 µM | > 100 µM | > 100 µM | > 100 µM | > 100 µM | > 100 µM | > 100 µM | > 100 µM | > 100 µM | > 100 µM | > 100 µM | > 100 µM | > 100 µM | > 100 µM | > 100 µM | > 100 µM
5 | COc1ccc(NC(=O)CC(=O)N2N=C(c3ccccc3)C(N=Nc3ccc(S(=O)(=O)CCOS(=O)(=O)O)cc3)C2=O)cc1 (stereo not given) | > 100 µM | > 100 µM | > 100 µM | > 100 µM | > 100 µM | > 100 µM | > 100 µM | > 100 µM | > 100 µM | > 100 µM | > 100 µM | > 100 µM | > 100 µM | > 100 µM | > 100 µM | > 100 µM | > 100 µM | > 100 µM | > 100 µM | > 100 µM
6 | CC(C)c1nc2cc(C(F)(F)F)ccc2[nH]c1=O | > 100 µM | > 100 µM | > 100 µM | > 100 µM | > 100 µM | > 100 µM | > 100 µM | > 100 µM | > 100 µM | > 100 µM | > 100 µM | > 100 µM | > 100 µM | > 100 µM | > 100 µM | > 100 µM | > 100 µM | > 100 µM | > 100 µM | > 100 µM
7 | C/C(=C\c1ccccc1)C(=O)NCc1ccc(C(=O)NCCC(C)C)cc1 | > 100 µM | > 100 µM | > 100 µM | > 100 µM | > 100 µM | > 100 µM | > 100 µM | > 100 µM | > 100 µM | > 100 µM | > 100 µM | 63.4 µM | > 100 µM | > 100 µM | > 100 µM | > 100 µM | 89.4 µM | > 100 µM | > 100 µM | > 100 µM
8 | Cc1ccc(Cc2n[nH]c(=O)n2/N=C\CC/C=N\n2c(Cc3ccc(C)cc3)n[nH]c2=O)cc1 | > 100 µM | > 100 µM | > 100 µM | > 100 µM | > 100 µM | 76.1 µM | > 100 µM | > 100 µM | > 100 µM | 84.6 µM | 49.9 µM | 65.3 µM | > 100 µM | 80.5 µM | > 100 µM | > 100 µM | 34.7 µM | > 100 µM | > 100 µM | > 100 µM
9 | O=C(N/N=C(/COc1ccc(Cl)cc1)N=Cc1cccnc1)c1ccncc1 | > 100 µM | > 100 µM | > 100 µM | > 100 µM | > 100 µM | 84.5 µM | > 100 µM | > 100 µM | 65.8 µM | > 100 µM | > 100 µM | > 100 µM | > 100 µM | > 100 µM |  | > 100 µM | > 100 µM | > 100 µM | > 100 µM | > 100 µM
10 | CC(C)C[C@H](NC(=O)[C@H](Cc1ccccc1)NC(=O)CCc1ccccc1)B(O)O | < 0.01 µM | 0.0919 µM | > 100 µM | < 0.01 µM | < 0.01 µM | < 0.01 µM | < 0.01 µM | < 0.01 µM | < 0.01 µM | < 0.01 µM | 1.82 µM | < 0.01 µM | < 0.01 µM | < 0.01 µM | < 0.01 µM | < 0.01 µM | < 0.01 µM | < 0.01 µM |  | < 0.01 µM
11 | N#CC(c1ccnc(Cl)n1)c1nc2ccccc2s1 (stereo not given) | 46.7 µM | 52.4 µM | 0.928 µM | 9.38 µM | 14.8 µM | 14.1 µM | > 26.5 µM | 12.3 µM | 12.9 µM | 15.6 µM | 19.7 µM | > 62.7 µM | 31.5 µM | 28.1 µM | 3.1 µM | 10.1 µM | 13 µM | 22.4 µM | 15.8 µM | > 94 µM
12 | S=C1Cc2c(-c3ccc(Cl)cc3)cc(-c3ccccc3)nc2-c2ccccc2N1 | 33 µM | 25.5 µM | > 100 µM | 28.8 µM | > 100 µM | 26.7 µM | 35.9 µM | 23.8 µM | 30.4 µM | 27.2 µM | 48.6 µM | 21.9 µM | 34.1 µM | 37.6 µM | > 100 µM | 31.3 µM | 17.4 µM | > 100 µM | 41.3 µM | 27.1 µM
